Source: US20190343908A1, “Therapeutic Combination for the Treatment of Cancer” (Nerium Biotechnology Inc., priority 2011, published 2019)

How the values were obtained:
[1] = tested on: HCT-116 (colorectal cancer); experiment: Methyl-Tetrazolium viability assay, HCT-116; assay type: cell-based, human; parameters: key: absorbance (optical density) at 570 nm, second wavelength subtracted; conditions: for Average MTT: HCT-116
From the text: Three different viability assays were chosen to complement each other and yielded results dependent on concentration and cell line: the Methyl Tetrazolium dye assay, the Sulforhodamine B fluorescent dye assay, and the Crystal Violet dye assay.
The Methyl-Tetrazolium dye assay measures the activity of enzymes in mitochondria. The dye precursor is taken up by cells, where it undergoes reduction to the purple formazan. It measures only the mitochondrial activity and, thus, it is not always a reliable indication of whether the cells themselves are alive or dead, since even a recently dead cell has […] enzyme activity in mitochondria. Intracellular glucose concentration, pH, and time before assay all affect the measurements.
(§1) The Methyl Tetrazolium, Sulforhodamine B, and Crystal Violet assays were used to assess cell viabilities. The incubation times were 24 hours, 48 hours, and 72 hours. The Nerium oleander extract Anvirzel™ (a hot water extract of oleander obtained from Salud Integral, Honduras) was tested in concentrations ranging from 0.01 ng/mL to 10 ng/mL.
(§2) Cells were detached by trypsinization (Trypsin-0.25% EDTA, Invitrogen, 25200-072) during the logarithmic phase of culture growth and plated in 96-well plates (18.000 cells/well) (Corning, Costar 359) in a final volume of 200 μl of medium per well. […] The absorbance was measured after 24 hours, 48 hours, and 72 hours of incubation.
For the Methyl-Tetrazolium assay, the dye (Sigma, M2128; 5 mg/mL, diluted in phosphate-buffered saline) was added to each well and plates were incubated for 3 hours at 37° C. After the end of the incubation period, the medium was discarded and the cells were rinsed with phosphate-buffered saline. Finally, the formazan crystals were dissolved in dimethylsulphoxide (Sigma, D4540).
(§3) The optical density of each plate was measured on a μQuant spectrophotometer and the data were analyzed with Gen5 software (μQuant Biomolecular Spectrophotometer MQX200 and Gen5™ Microplate Data Collection & Analysis software, BioTek® Instruments. Inc, April 2008). Absorbance was measured at 570 nm for all assays and a second wavelength was measured in order to subtract noise. For the Methyl-Tetrazolium assay this second wavelength was 630 nm and for the Sulforhodamine B and Crystal Violet assays it was 690 nm.

[2] = tested on: 22Rv1 (human prostate cancer); experiment: Crystal Violet (CVE) viability assay, 22Rv1; assay type: cell-based; conditions: for Average absorbance, CVE 24 h / Average absorbance, CVE 48 h / Average absorbance, CVE 72 h: 22Rv1 Run 3
From the text: The Sulforhodamine B and Crystal Violet assays provide information about protein and were used to complement the Methyl-Tetrazolium dye assay. […] It is used for the quantification of cellular proteins of cultured cells. The assay using Crystal Violet, a dye that binds electrostatically to proteins and stains DNA, provides a reliable, simple assay for measuring viability of cells.
as §1, §2
For the Crystal Violet assay, the medium was removed from the 96-well plates, the plates rinsed with PBS (Sigma, P3813) and then the cells were […] by the addition of 10% formalin (MERCK, 1.04003.2500) for 20 minutes at RT. Formalin was removed and 0.25% aqueous crystal violet (Sigma, HT901), dissolved in water, was added for 10 minutes at RT. Unbound Crystal Violet was rinsed by washing with water and finally 33% acetic acid was added to dissolve the dye.
as §3

Question: Which “MTT Average” value ([1]; HCT-116, Run 3, 24 h, 0.1 μg/ml CDDP) does the source give for `N.N.[Cl][Pt][Cl]` [cisplatin] here?
Answer: 0.16

Question: And the “MTT Average” value ([1]; HCT-116, Run 3, 24 h, 1 μg/ml CDDP)?
Answer: 0.041

Question: What about the “MTT Average” value ([1]; HCT-116, Run 3, 24 h, 10 μg/ml CDDP) of the same compound?
Answer: 0.09

Question: And the “MTT Average” value ([1]; HCT-116, Run 3, 24 h, 100 μg/ml CDDP)?
Answer: 0.044

Question: What about the “MTT Average” value ([1]; HCT-116, Run 3, 48 h, 0.1 μg/ml CDDP) of the same compound?
Answer: 0.302

Question: What about the “MTT Average” value ([1]; HCT-116, Run 3, 48 h, 1 μg/ml CDDP) of the same compound?
Answer: 0.039

Question: And the “MTT Average” value ([1]; HCT-116, Run 3, 48 h, 10 μg/ml CDDP)?
Answer: 0.108

Question: And the “MTT Average” value ([1]; HCT-116, Run 3, 48 h, 100 μg/ml CDDP)?
Answer: 0.037

Question: What about the “MTT Average” value ([1]; HCT-116, Run 3, 72 h, 0.1 μg/ml CDDP) of the same compound?
Answer: 0.385

Question: What about the “MTT Average” value ([1]; HCT-116, Run 3, 72 h, 1 μg/ml CDDP) of the same compound?
Answer: 0.041

Question: What about the “MTT Average” value ([1]; HCT-116, Run 3, 72 h, 10 μg/ml CDDP) of the same compound?
Answer: 0.147

Question: What about the “MTT Average” value ([1]; HCT-116, Run 3, 72 h, 100 μg/ml CDDP) of the same compound?
Answer: 0.043

Question: What about the “Average MTT” value ([1]; Run 1, 24 h, 0.1 μg/ml CDDP) of the same compound?
Answer: 0.215

Question: And the “Average MTT” value ([1]; Run 1, 24 h, 1 μg/ml CDDP)?
Answer: 0.037

Question: And the “Average MTT” value ([1]; Run 1, 24 h, 10 μg/ml CDDP)?
Answer: 0.072

Question: And the “Average MTT” value ([1]; Run 1, 24 h, 100 μg/ml CDDP)?
Answer: 0.038

Question: And the “Average MTT” value ([1]; Run 1, 48 h, 0.1 μg/ml CDDP)?
Answer: 0.184

Question: What about the “Average MTT” value ([1]; Run 1, 48 h, 1 μg/ml CDDP) of the same compound?
Answer: 0.027

Question: What about the “Average MTT” value ([1]; Run 1, 48 h, 10 μg/ml CDDP) of the same compound?
Answer: 0.054

Question: And the “Average MTT” value ([1]; Run 1, 48 h, 100 μg/ml CDDP)?
Answer: 0.031

Question: What about the “Average MTT” value ([1]; Run 1, 72 h, 0.1 μg/ml CDDP) of the same compound?
Answer: 0.332

Question: What about the “Average MTT” value ([1]; Run 1, 72 h, 1 μg/ml CDDP) of the same compound?
Answer: 0.03

Question: And the “Average MTT” value ([1]; Run 1, 72 h, 10 μg/ml CDDP)?
Answer: 0.033

Question: And the “Average MTT” value ([1]; Run 1, 72 h, 100 μg/ml CDDP)?
Answer: 0.031

Question: And the “Average MTT” value ([1]; Run 2, 24 h, 0.1 μg/ml CDDP)?
Answer: 0.111

Question: And the “Average MTT” value ([1]; Run 2, 24 h, 1 μg/ml CDDP)?
Answer: 0.053

Question: And the “Average MTT” value ([1]; Run 2, 24 h, 10 μg/ml CDDP)?
Answer: 0.081

Question: And the “Average MTT” value ([1]; Run 2, 24 h, 100 μg/ml CDDP)?
Answer: 0.072

Question: And the “Average MTT” value ([1]; Run 2, 48 h, 0.1 μg/ml CDDP)?
Answer: 0.179

Question: What about the “Average MTT” value ([1]; Run 2, 48 h, 1 μg/ml CDDP) of the same compound?
Answer: 0.044

Question: What about the “Average MTT” value ([1]; Run 2, 48 h, 10 μg/ml CDDP) of the same compound?
Answer: 0.045

Question: What about the “Average MTT” value ([1]; Run 2, 48 h, 100 μg/ml CDDP) of the same compound?
Answer: 0.04

Question: And the “Average MTT” value ([1]; Run 2, 72 h, 0.1 μg/ml CDDP)?
Answer: 0.296

Question: And the “Average MTT” value ([1]; Run 2, 72 h, 1 μg/ml CDDP)?
Answer: 0.054

Question: And the “Average MTT” value ([1]; Run 2, 72 h, 10 μg/ml CDDP)?
Answer: 0.045

Question: And the “Average MTT” value ([1]; Run 2, 72 h, 100 μg/ml CDDP)?
Answer: 0.037

Question: What about the “CVE 24 h Average” value ([2]; 22Rv1 Run 1, 0.1 μg/ml CDDP) of the same compound?
Answer: 0.27

Question: What about the “CVE 48 h Average” value ([2]; 22Rv1 Run 1, 0.1 μg/ml CDDP) of the same compound?
Answer: 0.501

Question: And the “CVE 72 h Average” value ([2]; 22Rv1 Run 1, 0.1 μg/ml CDDP)?
Answer: 0.803

Question: What about the “CVE 24 h Average” value ([2]; 22Rv1 Run 1, 1 μg/ml CDDP) of the same compound?
Answer: 0.152

Question: What about the “CVE 48 h Average” value ([2]; 22Rv1 Run 1, 1 μg/ml CDDP) of the same compound?
Answer: 0.437

Question: And the “CVE 72 h Average” value ([2]; 22Rv1 Run 1, 1 μg/ml CDDP)?
Answer: 0.606

Question: What about the “CVE 48 h Average” value ([2]; 22Rv1 Run 1, 10 μg/ml CDDP) of the same compound?
Answer: 0.351

Question: And the “CVE 72 h Average” value ([2]; 22Rv1 Run 1, 10 μg/ml CDDP)?
Answer: 0.439

Question: What about the “CVE 24 h Average” value ([2]; 22Rv1 Run 1, 100 μg/ml CDDP) of the same compound?
Answer: 0.124

Question: And the “CVE 48 h Average” value ([2]; 22Rv1 Run 1, 100 μg/ml CDDP)?
Answer: 0.273

Question: And the “CVE 72 h Average” value ([2]; 22Rv1 Run 1, 100 μg/ml CDDP)?
Answer: 0.233

Question: And the “CVE 24 h Average” value ([2]; 22Rv1 Run 2, 0.1 μg/ml CDDP)?
Answer: 0.541

Question: And the “CVE 48 h Average” value ([2]; 22Rv1 Run 2, 0.1 μg/ml CDDP)?
Answer: 0.776

Question: And the “CVE 72 h Average” value ([2]; 22Rv1 Run 2, 0.1 μg/ml CDDP)?
Answer: 0.784

Question: And the “CVE 24 h Average” value ([2]; 22Rv1 Run 2, 1 μg/ml CDDP)?
Answer: 0.305

Question: And the “CVE 48 h Average” value ([2]; 22Rv1 Run 2, 1 μg/ml CDDP)?
Answer: 0.517

Question: And the “CVE 72 h Average” value ([2]; 22Rv1 Run 2, 1 μg/ml CDDP)?
Answer: 0.286

Question: And the “CVE 24 h Average” value ([2]; 22Rv1 Run 2, 10 μg/ml CDDP)?
Answer: 0.376

Question: What about the “CVE 48 h Average” value ([2]; 22Rv1 Run 2, 10 μg/ml CDDP) of the same compound?
Answer: 0.434

Question: What about the “CVE 72 h Average” value ([2]; 22Rv1 Run 2, 10 μg/ml CDDP) of the same compound?
Answer: 0.206

Question: And the “CVE 24 h Average” value ([2]; 22Rv1 Run 2, 100 μg/ml CDDP)?
Answer: 0.228

Question: And the “CVE 48 h Average” value ([2]; 22Rv1 Run 2, 100 μg/ml CDDP)?
Answer: 0.228

Question: And the “CVE 72 h Average” value ([2]; 22Rv1 Run 2, 100 μg/ml CDDP)?
Answer: 0.256

Question: What about the “Average absorbance, CVE 24 h” value ([2]; 0.1 μg/ml CDDP) of the same compound?
Answer: 0.85

Question: And the “Average absorbance, CVE 48 h” value ([2]; 0.1 μg/ml CDDP)?
Answer: 0.644

Question: And the “Average absorbance, CVE 72 h” value ([2]; 0.1 μg/ml CDDP)?
Answer: 0.45

Question: What about the “Average absorbance, CVE 24 h” value ([2]; 1 μg/ml CDDP) of the same compound?
Answer: 0.434

Question: And the “Average absorbance, CVE 48 h” value ([2]; 1 μg/ml CDDP)?
Answer: 0.404

Question: And the “Average absorbance, CVE 72 h” value ([2]; 1 μg/ml CDDP)?
Answer: 0.284

Question: What about the “Average absorbance, CVE 24 h” value ([2]; 10 μg/ml CDDP) of the same compound?
Answer: 0.295

Question: And the “Average absorbance, CVE 48 h” value ([2]; 10 μg/ml CDDP)?
Answer: 0.289

Question: What about the “Average absorbance, CVE 72 h” value ([2]; 10 μg/ml CDDP) of the same compound?
Answer: 0.283

Question: And the “Average absorbance, CVE 24 h” value ([2]; 100 μg/ml CDDP)?
Answer: 0.215

Question: What about the “Average absorbance, CVE 48 h” value ([2]; 100 μg/ml CDDP) of the same compound?
Answer: 0.212

Question: And the “Average absorbance, CVE 72 h” value ([2]; 100 μg/ml CDDP)?
Answer: 0.234
